According to patent US6737383B1, “Herbicidal oxadiazolidines” (priority 1999, dated 2004):

Assays:
bamyardgrass = assay: Test B flood test barnyardgrass; assay type: in vivo, Echinochloa crus-galli
Outline: (§1)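 Flood test on plants grown to the 2-leaf stage; treated plants kept in greenhouse twelve to sixteen days, then visually rated against controls on a 0 (no effect) to 10 (complete control) scale.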

corn = assay: Test B pre/postemergence corn; assay type: in vivo, Zea mays
Outline: (§2)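 Herbicidal effect was estimated by eye on a ten-point control scale after plants spent twelve to sixteen days in a greenhouse following soil or foliar treatment. Foliar sprays targeted plants at one to four leaves; all doses were formulated in a non-phytotoxic solvent with surfactant.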

surinam grass = assay: Test B pre/postemergence surinam grass; assay type: in vivo, Brachiaria decumbens
Outline: as §2

velvetleaf = assay: Test B pre/postemergence velvetleaf; assay type: in vivo, Abutilon theophrasti; settings: for Plant response rating, Velvetleaf: scale of 0 to 10 where 0 is no effect and 10 is complete control
Outline: as §2

purple nutsedge = assay: Test B pre/postemergence purple nutsedge; assay type: in vivo, Cyperus rotundus; settings: for Plant response rating, Nutsedge: scale of 0 to 10 where 0 is no effect and 10 is complete control
Outline: as §2

wild oat = assay: Test B pre/postemergence wild oat; assay type: in vivo, Avena fatua; settings: for Plant response rating, Wild oats: scale of 0 to 10 where 0 is no effect and 10 is complete control
Outline: as §2

smallflower flatsedge = assay: Test B flood test smallflower flatsedge; assay type: in vivo, Cyperus difformis
Outline: as §1

blackgrass = assay: Test B pre/postemergence blackgrass; assay type: in vivo, Alopecurus myosuroides
Outline: as §2

cocklebur = assay: Test B pre/postemergence cocklebur; assay type: in vivo, Xanthium strumarium
Outline: as §2

crabgrass = assay: Test B pre/postemergence crabgrass; assay type: in vivo, Digitaria sanguinalis
Outline: as §2

soybean = assay: Test B pre/postemergence soybean; assay type: in vivo, Glycine max; settings: for Plant response rating, Soybean: scale of 0 to 10 where 0 is no effect and 10 is complete control
Outline: as §2

duck salad = assay: Test B flood test duck salad; assay type: in vivo, Heteranthera limosa
Outline: as §1

bedstraw = assay: Test B pre/postemergence bedstraw; assay type: in vivo, Galium aparine; settings: Postemergence
Outline: as §2

wheat = assay: Test B pre/postemergence wheat; assay type: in vivo, Triticum aestivum; settings: for Plant response rating, Wheat: scale of 0 to 10 where 0 is no effect and 10 is complete control
Outline: as §2

rice = assay: Test B flood test rice; assay type: in vivo, Oryza sativa
Outline: as §1

sugar beet = assay: Test B pre/postemergence sugar beet; assay type: in vivo, Beta vulgaris; settings: for Plant response rating, Sugarbeets: scale of 0 to 10 where 0 is no effect and 10 is complete control
Outline: as §2

rape = assay: Test B pre/postemergence rape; assay type: in vivo, Brassica napus; settings: for Plant response rating, Rape: scale of 0 to 10 where 0 is no effect and 10 is complete control
Outline: as §2

[1] = Rate 62 g/ha, flood test species, Pre-emergence, visual evaluation after twelve to sixteen days
[2] = Rate 125 g/ha, under heading Pre-emergence, flood test species, visual evaluation after twelve to sixteen days
[3] = Rate 250 g/ha, Pre-emergence (flood test species), scale 0 to 10, 0 is no effect, 10 is complete control
[4] = Rate 500 g/ha, Pre-emergence, flood test species, scale 0 to 10 (0 no effect, 10 complete control)
[5] = Postemergence, Rate 250 g/ha, scale 0 to 10
[6] = Postemergence, Rate 500 g/ha, scale of 0 to 10 where 0 is no effect and 10 is complete control
[7] = Preemergence, Rate 62 g/ha, scale of 0 to 10 where 0 is no effect and 10 is complete control
[8] = Preemergence, Rate 125 g/ha, scale of 0 to 10 where 0 is no effect and 10 is complete control
[9] = Preemergence, Rate 250 g/ha, scale 0 to 10, 0 is no effect, 10 is complete control
[10] = Preemergence, Rate 500 g/ha, scale 0 to 10, 0 is no effect, 10 is complete control
[11] = Rate 62 g/ha, Postemergence, scale 0 to 10, 0 no effect, 10 complete control
[12] = Rate 125 g/ha, Postemergence, scale 0 to 10, 0 is no effect, 10 is complete control

CC(C)N(C(=O)n1oc(=O)n(C(C)C#N)c1=O)c1ccc(Cl)cc1 (stereo not shown) [Compound 451]
Plant response rating, Barnyardgrass (0 to 10 scale, 0 is no effect, 10 is complete control) (bamyardgrass; [1]): 0
Barnyardgrass plant response rating (0 to 10 scale, 0 is no effect, 10 is complete control) (bamyardgrass; [2]): 0
Barnyardgrass plant response rating (bamyardgrass; [3]): 0
Barnyardgrass plant response rating (bamyardgrass; [4]): 0
Corn plant response rating (corn; [5]): 0
Corn plant response rating (corn; [6]): 0
Plant response rating, Corn (corn; [7]): 0
Plant response rating, Corn (corn; [8]): 0
Corn plant response rating (corn; [9]): 0
Corn plant response rating (corn; [10]): 0
Corn plant response rating (corn; [11]): 0
Corn plant response rating (corn; [12]): 0
B. signalgrass plant response rating (surinam grass; Postemergence, Rate 250 g/ha, scale 0 to 10, 0 no effect, 10 complete control): 0
B. signalgrass plant response rating (surinam grass; [6]): 2
Plant response rating, B. signalgrass (surinam grass; [7]): 0
Plant response rating, B. signalgrass (surinam grass; [8]): 0
B. signalgrass plant response rating (surinam grass; [9]): 0
B. signalgrass plant response rating (surinam grass; [10]): 0
B. signalgrass plant response rating (surinam grass; [11]): 0
B. signalgrass plant response rating (surinam grass; [12]): 0
Velvetleaf plant response rating (velvetleaf; [5]): 0
Plant response rating, Velvetleaf (velvetleaf; Preemergence, Rate 62 g/ha): 0
Plant response rating, Velvetleaf (velvetleaf; Preemergence, Rate 125 g/ha): 0
Velvetleaf plant response rating (velvetleaf; [9]): 0
Velvetleaf plant response rating (velvetleaf; [10]): 0
Velvetleaf plant response rating (velvetleaf; [11]): 0
Velvetleaf plant response rating (velvetleaf; [12]): 0
Nutsedge plant response rating (purple nutsedge; [5]): 0
Plant response rating, Nutsedge (purple nutsedge; Preemergence, Rate 62 g/ha): 0
Plant response rating, Nutsedge (purple nutsedge; Preemergence, Rate 125 g/ha): 0
Nutsedge plant response rating (purple nutsedge; [10]): 0
Nutsedge plant response rating (purple nutsedge; [11]): 0
Nutsedge plant response rating (purple nutsedge; [12]): 0
Wild oats plant response rating (wild oat; [5]): 0
Plant response rating, Wild oats (wild oat; Preemergence, Rate 62 g/ha): 0
Plant response rating, Wild oats (wild oat; Preemergence, Rate 125 g/ha): 0
Wild oats plant response rating (wild oat; [9]): 0
Wild oats plant response rating (wild oat; [10]): 0
Wild oats plant response rating (wild oat; [11]): 0
Wild oats plant response rating (wild oat; [12]): 0
Plant response rating, S. Flatsedge (0 to 10 scale, 0 is no effect, 10 is complete control) (smallflower flatsedge; [1]): 0
S. Flatsedge plant response rating (0 to 10 scale, 0 is no effect, 10 is complete control) (smallflower flatsedge; [2]): 0
S. Flatsedge plant response rating (smallflower flatsedge; [3]): 0
S. Flatsedge plant response rating (smallflower flatsedge; [4]): 0
Blackgrass plant response rating (blackgrass; [5]): 2
Blackgrass plant response rating (blackgrass; [6]): 6
Plant response rating, Blackgrass (blackgrass; [7]): 0
Plant response rating, Blackgrass (blackgrass; [8]): 0
Blackgrass plant response rating (blackgrass; [9]): 0
Blackgrass plant response rating (blackgrass; [10]): 0
Blackgrass plant response rating (blackgrass; [11]): 0
Blackgrass plant response rating (blackgrass; [12]): 0
Cocklebur plant response rating (cocklebur; [5]): 0
Cocklebur plant response rating (cocklebur; [6]): 0
Plant response rating, Cocklebur (cocklebur; [7]): 0
Plant response rating, Cocklebur (cocklebur; [8]): 0
Cocklebur plant response rating (cocklebur; [9]): 0
Cocklebur plant response rating (cocklebur; [10]): 0
Cocklebur plant response rating (cocklebur; [11]): 0
Cocklebur plant response rating (cocklebur; [12]): 0
Crabgrass plant response rating (crabgrass; [5]): 4
Crabgrass plant response rating (crabgrass; [6]): 6
Plant response rating, Crabgrass (crabgrass; [7]): 0
Plant response rating, Crabgrass (crabgrass; [8]): 0
Crabgrass plant response rating (crabgrass; [9]): 1
Crabgrass plant response rating (crabgrass; [10]): 7
Crabgrass plant response rating (crabgrass; [11]): 0
Crabgrass plant response rating (crabgrass; [12]): 0
Soybean plant response rating (soybean; [5]): 1
Plant response rating, Soybean (soybean; Preemergence, Rate 62 g/ha): 0
Plant response rating, Soybean (soybean; Preemergence, Rate 125 g/ha): 0
Soybean plant response rating (soybean; [9]): 0
Soybean plant response rating (soybean; [10]): 0
Soybean plant response rating (soybean; [11]): 0
Soybean plant response rating (soybean; [12]): 1
Plant response rating, Ducksalad (0 to 10 scale, 0 is no effect, 10 is complete control) (duck salad; [1]): 0
Ducksalad plant response rating (0 to 10 scale, 0 is no effect, 10 is complete control) (duck salad; [2]): 0
Ducksalad plant response rating (duck salad; [3]): 0
Ducksalad plant response rating (duck salad; [4]): 0
Bedstraw plant response rating (bedstraw; Rate 62 g/ha, scale 0 to 10, 0 no effect, 10 complete control): 0
Bedstraw plant response rating (bedstraw; Rate 125 g/ha, scale 0 to 10, 0 is no effect, 10 is complete control): 0
Wheat plant response rating (wheat; [5]): 0
Plant response rating, Wheat (wheat; Preemergence, Rate 62 g/ha): 0
Plant response rating, Wheat (wheat; Preemergence, Rate 125 g/ha): 0
Wheat plant response rating (wheat; [9]): 0
Wheat plant response rating (wheat; [10]): 0
Wheat plant response rating (wheat; [11]): 0
Wheat plant response rating (wheat; [12]): 0
Plant response rating, Rice (0 to 10 scale, 0 is no effect, 10 is complete control) (rice; [1]): 0
Rice plant response rating (0 to 10 scale, 0 is no effect, 10 is complete control) (rice; [2]): 0
Rice plant response rating (rice; [3]): 0
Rice plant response rating (rice; [4]): 0
Sugarbeets plant response rating (sugar beet; [5]): 0
Plant response rating, Sugarbeets (sugar beet; Preemergence, Rate 62 g/ha): 0
Plant response rating, Sugarbeets (sugar beet; Preemergence, Rate 125 g/ha): 0
Sugarbeets plant response rating (sugar beet; [9]): 0
Sugarbeets plant response rating (sugar beet; [10]): 0
Sugarbeets plant response rating (sugar beet; [11]): 0
Sugarbeets plant response rating (sugar beet; [12]): 0
Rape plant response rating (rape; [5]): 0
Plant response rating, Rape (rape; Preemergence, Rate 62 g/ha): 0
Plant response rating, Rape (rape; Preemergence, Rate 125 g/ha): 0
Rape plant response rating (rape; [9]): 0
Rape plant response rating (rape; [10]): 0
Rape plant response rating (rape; [11]): 0
Rape plant response rating (rape; [12]): 0
